Test results from ChEMBL document CHEMBL1129877, “Design, synthesis and biological evaluation of 1,3-diaminopropanes: a new class of polyamine analogs as leishmanicidal agents” (1997).

Columns and labels:
Type in all cases: functional
Leishmania donovani = test: In vivo anti-leishmanial activity to Leishmania donovani infected hamster after intraperitoneal dose of 50 mg/kg X 5 on day 7th; details: ip
[1] = Tested in vivo for anti-leishmanial activity against Leishmania donovani infected hamster intraperitoneal dose of 25 mg/kg X 5 on day 7th; details: ip
[2] = Tested in vivo for anti-leishmanial activity against Leishmania donovani infected hamster auratus after oral dose of 50 mg/kg X 5 on day 7th
[3] = Tested in vivo for anti-leishmanial activity against Leishmania donovani infected hamster intraperitoneal dose of 100 mg/kg X 5 on day 7th; details: ip
[4] = Tested in vivo for anti-leishmanial activity against Leishmania donovani infected hamster auratus after oral dose of 25 mg/kg X 5 on day 7th

COC(=O)/N=C(\NCCCN1CCC(c2ccccc2)CC1)NC(=O)OC
inhibition in vivo at 50 mg/kg (Leishmania donovani): 66.5%

COC(=O)/N=C(\NCCCN1CCN(C)CC1)NC(=O)OC
inhibition in vivo at 50 mg/kg (Leishmania donovani): 85.5%

NCCCN1CCC(c2ccccn2)CC1
inhibition in vivo at 50 mg/kg (Leishmania donovani): 48.7%

CC1CCN(CCCN=C(N)N)CC1
inhibition in vivo at 50 mg/kg (Leishmania donovani): 62.2%

CN1CCN(CCCN2CCCNC2=O)CC1
inhibition in vivo at 50 mg/kg (Leishmania donovani): 52.1%

CN1CCN(CCCNCCC#N)CC1
inhibition in vivo at 50 mg/kg (Leishmania donovani): 78.1%

NCCCN1CCCCC1
inhibition in vivo at 50 mg/kg (Leishmania donovani): 52.4%

CCN1CCCN(CCCN2CCC(C)CC2)C1=O
inhibition in vivo at 50 mg/kg (Leishmania donovani): 25%

CC1CCN(CCCN)CC1
inhibition in vivo at 50 mg/kg (Leishmania donovani): 54.5%

N=C(N)NCCCN1CCCCC1
inhibition in vivo at 50 mg/kg (Leishmania donovani): 42.1%

N#CCCNCCCN1CCC(c2ccccc2)CC1
inhibition in vivo at 50 mg/kg (Leishmania donovani): 43.4%

CN1CCN(CCCN)CC1
inhibition in vivo at 50 mg/kg (Leishmania donovani): 66.9%

CC1CCN(CCCNCCC#N)CC1
inhibition in vivo at 50 mg/kg (Leishmania donovani): 45%

N#CCCNCCCN1CCN(c2ccccc2)CC1
inhibition in vivo at 25 mg/kg [1]: 71.2%
inhibition in vivo at 50 mg/kg (Leishmania donovani): 71%

COC(=O)/N=C(\NCCCN1CCC(c2ccccn2)CC1)NC(=O)OC
inhibition in vivo at 25 mg/kg [1]: 73.2%
inhibition in vivo at 50 mg/kg (Leishmania donovani): 72.8%

O=C1NCCCN1CCCN1CCCCC1
inhibition in vivo at 50 mg/kg (Leishmania donovani): 43%

CC1CCN(CCCN2CCCNC2=O)CC1
inhibition in vivo at 50 mg/kg (Leishmania donovani): 60.8%

NCCCN1CCOCC1
inhibition in vivo at 50 mg/kg (Leishmania donovani): 45.8%

COC(=O)/N=C(\NCCCN1CCN(c2ccccc2)CC1)NC(=O)OC
inhibition in vivo at 50 mg/kg (Leishmania donovani): 73.8%

N#CCCNCCCN1CCCCC1
inhibition in vivo at 50 mg/kg (Leishmania donovani): 64.8%

N=C(N)NCCCN1CCC(c2ccccc2)CC1
inhibition in vivo at 50 mg/kg (Leishmania donovani): 57.7%

COC(=O)/N=C(\NCCCN1CCCCC1)NC(=O)OC
inhibition in vivo at 50 mg/kg (Leishmania donovani): 56.2%

NCCCN1CCC(c2ccccc2)CC1
inhibition in vivo at 50 mg/kg (Leishmania donovani): 66%

COC(=O)/N=C(\NCCCN1CCC(C)CC1)NC(=O)OC
inhibition in vivo at 25 mg/kg [1]: 80.9%
inhibition in vivo at 50 mg/kg [2]: 76.8%
inhibition in vivo at 50 mg/kg (Leishmania donovani): 78.4%
inhibition in vivo at 100 mg/kg [3]: 46.4%
inhibition in vivo at 25 mg/kg [4]: 77.6%

COC(=O)/N=C(\NCCCN1CCOCC1)NC(=O)OC
inhibition in vivo at 50 mg/kg (Leishmania donovani): 80.2%

CN1CCN(CCCN=C(N)N)CC1
inhibition in vivo at 50 mg/kg (Leishmania donovani): 45.1%

CCN1CCCN(CCCN2CCCCC2)C1=O
inhibition in vivo at 50 mg/kg (Leishmania donovani): 41.2%

NCCCN1CCN(c2ccccc2)CC1
inhibition in vivo at 50 mg/kg (Leishmania donovani): 37.2%
